Laboratory results: US12371454B2, “Cyclic peptide compound having Kras inhibitory action” (priority 2019, dated 2025)
Starred links: 1 amine or outer side, 2 acyl side, 3 side chain; linkers in the order of their positions; H or OH if unused. Positions of bridges follow the written chain, without caps; N, C: chain ends. Non-standard residues stand in square brackets, D forms with d. Residues, ends and D or L forms follow the SMILES beside them. *: point of attachment. NMeAbu(3,3-F2-piperidino) = CN[C@@H](CCN1CCCC(F)(F)C1)C(=O)O; hPhe(3-Cl-4-CF3) = N[C@@H](CCc1ccc(C(F)(F)F)c(Cl)c1)C(=O)O; hPhe(3,4-Cl2) = N[C@@H](CCc1ccc(Cl)c(Cl)c1)C(=O)O; NMePhe(4-Cl) = CN[C@@H](Cc1ccc(Cl)cc1)C(=O)O; NMePhe(4-Me) = CN[C@@H](Cc1ccc(C)cc1)C(=O)O; NMedβ3hAla = C[C@H](CC(=O)[*:2])N(C)[*:1]; NMeGly(cBu) = CN[C@H](C(=O)O)C1CCC1; NMeCha = CN[C@@H](CC1CCCCC1)C(=O)O; NMeChg = CN[C@H](C(=O)O)C1CCCCC1; NMeI = CC[C@H](C)[C@H](NC)C(=O)O; NMeT = CN[C@H](C(=O)O)[C@@H](C)O; NMeD = CN[C@@H](CC(=O)O)C(=O)O; NMeL = CN[C@@H](CC(C)C)C(=O)O; NPrAla = CCCN[C@@H](C)C(=O)O; NMeV = CN[C@H](C(=O)O)C(C)C; NMeS = CN[C@@H](CO)C(=O)O; Morpholide = C1CN(*)CCO1; NMeA = CN[C@@H](C)C(=O)O; Piperidide = C1CCN(*)CC1; Ac5c = NC1(C(=O)O)CCCC1; Aze = O=C(O)[C@@H]1CCN1; Ac4c = NC1(C(=O)O)CCC1; Sar = CNCC(=O)O; Propyl = CCC*

What was measured:
[1] = molecular target: T1, Kras and SOS1 (biotin-tagged human Kras loaded with GDP, His-tagged human SOS1) (Homo sapiens, UniProt P01116, G12D); experiment: Protein-protein interaction inhibition between Kras and SOS1 (KrasGl2D-SOS PPI) using AlphaScreen; type: binding; conditions: AlphaScreen; biotin-tagged human Kras loaded with GDP, His-tagged human SOS1; read-out: KRAS G12D-SOS PPI IC50
T1 construct: made in house; host or cells: E. coli (stated for Kras only)
T1 sequence (P01116 1-188 isoform P01116-2 G12D): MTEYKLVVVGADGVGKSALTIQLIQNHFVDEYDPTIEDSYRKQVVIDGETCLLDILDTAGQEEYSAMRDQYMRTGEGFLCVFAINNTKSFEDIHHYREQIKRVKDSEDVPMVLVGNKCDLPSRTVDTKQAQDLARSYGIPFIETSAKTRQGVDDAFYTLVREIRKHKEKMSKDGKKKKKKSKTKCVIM
Method in brief: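 Donor beads (nickel) hold His-SOS1; acceptor beads (streptavidin) hold biotin-Kras bound to GDP. Signal measured at 520-620 nm following 680 nm excitation.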

[2] = tested on: Human pancreatic cancer cell line AsPC-1; experiment: Measurement of AsPC-1 cell growth inhibition (AsPC-1 CGI); type: cell-based; conditions: 96 h
Method in brief: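 AsPC-1 cells in 15% FBS RPMI-1640 were exposed to test compound for 96 hours at 37° C, with CellTiter-Glo as endpoint.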

Row | SMILES | IC50 [1] [µM] | IC50 [2] [µM]
1 | CC[C@H](C)[C@@H]1NC(=O)[C@H](CC(C)C)N(C)C(=O)C[C@@H](C(=O)N(C)C)N(C)C(=O)[C@H]([C@@H](C)CC)N(C)C(=O)C2(CCCC2)NC(=O)[C@H](CCN2CCCC(F)(F)C2)N(C)C(=O)[C@H](CCc2ccc(C(F)(F)F)c(Cl)c2)NC(=O)CN(C)C(=O)[C@H](Cc2ccc(C)cc2)N(C)C(=O)[C@@H]2CCN2C(=O)[C@H](C)N(C)C1=O [Compound 818] ([NMeL]I[NMeA][Aze][NMePhe(4-Me)][Sar][hPhe(3-Cl-4-CF3)][NMeAbu(3,3-F2-piperidino)][Ac5c][NMeI][NMeD]-NMe2; lactam N-11) | 0.0012 | 0.02 to 0.05
2 | CC[C@H](C)[C@@H]1NC(=O)[C@H]([C@@H](C)OC)N(C)C(=O)C[C@@H](C(=O)N2CCCCC2)N(C)C(=O)[C@H](C2CCCCC2)N(C)C(=O)C2(CCCC2)NC(=O)[C@@H]2CCCN2C(=O)[C@H](CCc2ccc(C(F)(F)F)c(Cl)c2)NC(=O)CN(C)C(=O)[C@H](CC2CCCCC2)N(C)C(=O)CN(C)C(=O)CN(C)C1=O [Compound 820] ([NMeT](Me)I[Sar][Sar][NMeCha][Sar][hPhe(3-Cl-4-CF3)]P[Ac5c][NMeChg][NMeD]-Piperidide; lactam N-11) | 0.00073 | 0.05 to 0.1
3 | CCCN1C(=O)C[C@@H](C)N(C)C(=O)[C@H](C(C)C)N(C)C(=O)C2(CCCC2)NC(=O)[C@@H]2CCCN2C(=O)[C@H](CCc2ccc(C(F)(F)F)c(Cl)c2)NC(=O)CN(C)C(=O)[C@H](CC2CCCCC2)N(C)C(=O)CN(C)C(=O)CN(C)C(=O)[C@H]([C@@H](C)CC)NC(=O)[C@@H]1C [Compound 824] (cyclo([Ac5c][NMeV][NMedβ3hAla][NPrAla]I[Sar][Sar][NMeCha][Sar][hPhe(3-Cl-4-CF3)]P)) | 0.0056 | 0.1 to 0.5
4 | CC[C@H](C)[C@@H]1NC(=O)[C@H](C)N(C)C(=O)C[C@@H](C(=O)N2CCCCC2)N(C)C(=O)[C@H](C2CCCCC2)N(C)C(=O)C2(CCCC2)NC(=O)[C@@H]2CCCN2C(=O)[C@H](CCc2ccc(Cl)c(Cl)c2)NC(=O)CN(C)C(=O)[C@H](CC2CCCCC2)N(C)C(=O)CN(C)C(=O)CN(C)C1=O [Compound 825] ([NMeA]I[Sar][Sar][NMeCha][Sar][hPhe(3,4-Cl2)]P[Ac5c][NMeChg][NMeD]-Piperidide; lactam N-11) | 0.00035 | 0.05 to 0.1
5 | CC[C@H](C)[C@@H]1NC(=O)[C@H](CC(C)C)N(C)C(=O)C[C@@H](C)N(C)C(=O)[C@H](C(C)C)N(C)C(=O)C2(CCC2)NC(=O)[C@@H]2CCCN2C(=O)[C@H](CCc2ccc(C(F)(F)F)c(Cl)c2)NC(=O)CN(C)C(=O)[C@H](CC2CCCCC2)N(C)C(=O)CN(C)C(=O)CN(C)C1=O [Compound 837] (cyclo([Ac4c][NMeV][NMedβ3hAla][NMeL]I[Sar][Sar][NMeCha][Sar][hPhe(3-Cl-4-CF3)]P)) | 0.006 | 0.05 to 0.1
6 | CC[C@H](C)[C@@H]1NC(=O)[C@H](CC(C)C)N(C)C(=O)C[C@@H](C(=O)N(C)C)N(C)C(=O)[C@H]([C@@H](C)CC)N(C)C(=O)C2(CCCC2)NC(=O)[C@H](Cc2ccc(Cl)cc2)N(C)C(=O)[C@H](CCc2ccc(C(F)(F)F)c(Cl)c2)NC(=O)CN(C)C(=O)[C@H](Cc2ccc(C)cc2)N(C)C(=O)[C@@H]2CCN2C(=O)[C@H](C)N(C)C1=O [Compound 838] ([NMeL]I[NMeA][Aze][NMePhe(4-Me)][Sar][hPhe(3-Cl-4-CF3)][NMePhe(4-Cl)][Ac5c][NMeI][NMeD]-NMe2; lactam N-11) | 0.01 | 0.1 to 0.5
7 | CC[C@H](C)[C@@H]1NC(=O)[C@H](CC(C)C)N(C)C(=O)C[C@@H](C)N(C)C(=O)[C@H](C2CCC2)N(C)C(=O)C2(CCCC2)NC(=O)[C@@H]2CCCN2C(=O)[C@H](CCc2ccc(C(F)(F)F)c(Cl)c2)NC(=O)CN(C)C(=O)[C@H](CC2CCCCC2)N(C)C(=O)CN(C)C(=O)CN(C)C1=O [Compound 845] (cyclo([Ac5c][NMeGly(cBu)][NMedβ3hAla][NMeL]I[Sar][Sar][NMeCha][Sar][hPhe(3-Cl-4-CF3)]P)) | 0.0082 | 0.05 to 0.1
8 | CC[C@H](C)[C@@H]1NC(=O)[C@H](C2CCCCC2)N(C)C(=O)C[C@@H](C(=O)N2CCCCC2)N(C)C(=O)[C@H](C2CCCCC2)N(C)C(=O)C2(CCCC2)NC(=O)[C@@H]2CCCN2C(=O)[C@H](CCc2ccc(C(F)(F)F)c(Cl)c2)NC(=O)CN(C)C(=O)[C@H](CC2CCCCC2)N(C)C(=O)CN(C)C(=O)CN(C)C1=O [Compound 849] ([NMeChg]I[Sar][Sar][NMeCha][Sar][hPhe(3-Cl-4-CF3)]P[Ac5c][NMeChg][NMeD]-Piperidide; lactam N-11) | 0.0019 | 0.1 to 0.5
9 | CCCOC[C@H]1C(=O)N(C)CC(=O)N[C@@H](CCc2ccc(C(F)(F)F)c(Cl)c2)C(=O)N2CCC[C@H]2C(=O)NC2(CCCC2)C(=O)N(C)[C@@H](C2CCCCC2)C(=O)N(C)[C@H](C(=O)N2CCOCC2)CC(=O)N(C)[C@@H](C2CCC2)C(=O)N[C@@H]([C@@H](C)CC)C(=O)N(C)CC(=O)N(C)CC(=O)N1C [Compound 853] ([NMeGly(cBu)]I[Sar][Sar][NMeS](Propyl)[Sar][hPhe(3-Cl-4-CF3)]P[Ac5c][NMeChg][NMeD]-Morpholide; lactam N-11) | 0.00062 | 0.1 to 0.5
